Data reported in the supplement of paper PMC11451515.

Tested on: NOMO1
Assay: cell viability relative to DMSO control; higher = less cytotoxic
Settings: 48 h
Outline: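 Library compounds in DMSO were pin-dosed into 1536-well plates (5 μl) holding NOMO1 or SEM (500 cells/well) or P12-Ichikawa (1000 cells/well) leukemia cells, across an 11-point threefold series of 47 μM to 0.79 nM. Each cell line had been adapted for at least four passages in each medium. CellTiter-Glo One luminescence was read after 48 h at 37°C. Viability is the per-plate percentage relative to DMSO wells, with cell-free wells as background.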

[1] = HPLM + 10% dialyzed FBS, 0.000781 µM
[2] = HPLM + 10% dialyzed FBS, 0.00234 µM
[3] = HPLM + 10% dialyzed FBS, 0.00702 µM
[4] = HPLM + 10% dialyzed FBS, 0.0211 µM
[5] = HPLM + 10% dialyzed FBS, 0.0632 µM
[6] = HPLM + 10% dialyzed FBS, 0.19 µM
[7] = HPLM + 10% dialyzed FBS, 0.569 µM
[8] = HPLM + 10% dialyzed FBS, 1.71 µM
[9] = HPLM + 10% dialyzed FBS, 5.12 µM
[10] = HPLM + 10% dialyzed FBS, 15.4 µM
[11] = HPLM + 10% dialyzed FBS, 46.1 µM
[12] = RPMI 5 mM glucose + 10% FBS, 0.000781 µM
[13] = RPMI 5 mM glucose + 10% FBS, 0.00234 µM
[14] = RPMI 5 mM glucose + 10% FBS, 0.00702 µM
[15] = RPMI 5 mM glucose + 10% FBS, 0.0211 µM
[16] = RPMI 5 mM glucose + 10% FBS, 0.0632 µM
[17] = RPMI 5 mM glucose + 10% FBS, 0.19 µM
[18] = RPMI 5 mM glucose + 10% FBS, 0.569 µM
[19] = RPMI 5 mM glucose + 10% FBS, 1.71 µM
[20] = RPMI 5 mM glucose + 10% FBS, 5.12 µM
[21] = RPMI 5 mM glucose + 10% FBS, 15.4 µM
[22] = RPMI 5 mM glucose + 10% FBS, 46.1 µM
[23] = RPMI 5 mM glucose + 10% dialyzed FBS, 0.000781 µM
[24] = RPMI 5 mM glucose + 10% dialyzed FBS, 0.00234 µM
[25] = RPMI 5 mM glucose + 10% dialyzed FBS, 0.00702 µM
[26] = RPMI 5 mM glucose + 10% dialyzed FBS, 0.0211 µM
[27] = RPMI 5 mM glucose + 10% dialyzed FBS, 0.0632 µM
[28] = RPMI 5 mM glucose + 10% dialyzed FBS, 0.19 µM
[29] = RPMI 5 mM glucose + 10% dialyzed FBS, 0.569 µM
[30] = RPMI 5 mM glucose + 10% dialyzed FBS, 1.71 µM
[31] = RPMI 5 mM glucose + 10% dialyzed FBS, 5.12 µM
[32] = RPMI 5 mM glucose + 10% dialyzed FBS, 15.4 µM
[33] = RPMI 5 mM glucose + 10% dialyzed FBS, 46.1 µM

Structure (SMILES)	cell viability [1]	cell viability [2]	cell viability [3]	cell viability [4]	cell viability [5]	cell viability [6]	cell viability [7]	cell viability [8]	cell viability [9]	cell viability [10]	cell viability [11]	cell viability [12]	cell viability [13]	cell viability [14]	cell viability [15]	cell viability [16]	cell viability [17]	cell viability [18]	cell viability [19]	cell viability [20]	cell viability [21]	cell viability [22]	cell viability [23]	cell viability [24]	cell viability [25]	cell viability [26]	cell viability [27]	cell viability [28]	cell viability [29]	cell viability [30]	cell viability [31]	cell viability [32]	cell viability [33]
O=C(/C=C/c1cccnc1)NCCCCC1CCN(C(=O)c2ccccc2)CC1	102%	59.8%	33.1%	17.4%	13.1%	7.89%	6.3%	7.27%	9.47%	10.6%	6.73%	105%	110%	47%	28%	12.9%	9.19%	8.33%	8.21%	8.16%	8.07%	7.6%	110%	75.6%	39%	30.7%	16.8%	9.73%	7.83%	8.77%	7.77%	8.34%	6.8%
CNCCN(C)Cc1c[nH]nc1-c1ccc(O[C@H]2C[C@H](OCCC3CCOCC3)C2)cc1	115%	110%	129%	150%	136%	156%	133%	128%	114%	103%	121%	126%	123%	122%	132%	149%	141%	135%	131%	141%	148%	132%	119%	122%	140%	143%	151%	130%	147%	147%	144%	141%	124%
COc1cc2nc(N3CCN(C(=O)c4ccco4)CC3)nc(N)c2cc1OC	77.8%	103%	93.7%	97%	98.3%	105%	105%	92.8%	91.8%	43%	5.27%	72.1%	78.4%	81.6%	83.9%	87.5%	91.9%	82.2%	85.1%	90.7%	95.9%	4.8%	72%	83.6%	82.1%	80.5%	90%	92.2%	95.2%	98.2%	80.4%	88.4%	4.29%
CC(=O)[C@H]1CC[C@H]2[C@@H]3C/C=C4/C[C@@H](O)CC[C@]4(C)[C@H]3CC[C@]12C	129%	121%	125%	115%	131%	129%	138%	123%	119%	104%	108%	121%	113%	119%	111%	116%	117%	109%	121%	110%	111%	119%	121%	118%	139%	128%	129%	114%	132%	121%	118%	116%	97.7%
CCN(CCO)CCCC(C)Nc1ccnc2cc(Cl)ccc12 (stereo not drawn)	111%	105%	104%	123%	112%	139%	107%	101%	90%	53.2%	26%	107%	115%	110%	102%	101%	118%	115%	116%	110%	45.2%	21%											
CN1\C(=C(O)/C2=C(C=C(Cl)S2)[S+]1([O-])=O)C(=O)NC3=NC=CC=C3	138%	112%	116%	125%	119%	111%	132%	103%	125%	123%	108%	109%	108%	110%	105%	119%	128%	126%	109%	108%	121%	111%	115%	101%	126%	120%	131%	126%	123%	118%	112%	116%	114%
COC1=C(CC=C(C)C)C2=C(\C=C/C(=O)O2)C=C1	101%	107%	125%	110%	119%	114%	117%	120%	102%	113%	81.8%	114%	117%	120%	116%	104%	123%	104%	108%	108%	114%	97.9%	116%	116%	117%	105%	108%	116%	120%	113%	98.7%	104%	85.2%
NC(=O)Cc1cccc(C(=O)c2ccccc2)c1N	79.5%	98.2%	122%	95.4%	108%	109%	110%	102%	108%	96.8%	102%	92.3%	101%	88.4%	91.2%	96.8%	88%	84.7%	98.8%	85.2%	93.7%	81.9%	97.4%	87.3%	96.1%	82.7%	101%	98.3%	91.6%	86.9%	95.6%	77.8%	88.1%
